For experiment [1], the target named is human 20S proteasome (hs20S), trypsin-like activity mediated by the β2 subunit (Homo sapiens, UniProt P49720+Q99436). The class given is biochemical. The conditions noted are these: Boc-LRR-AMC, Table 2.
A further experiment has as its system SR leukemia cell line. Kind of experiment: NCI dose-dependent growth inhibition, SR. The conditions noted are these: 48-h exposure, optical density, data provided by NCI. It is filed as cell-based.
Experiment [2] concerns MOLT-4 leukemia cell line. Put plainly: NCI dose-dependent growth inhibition, MOLT-4. It is filed as cell-based. The settings on record: 48-h exposure, optical density, data provided by NCI.
For a further experiment, the system named is HL-60 leukemia cell line. Put plainly: NCI dose-dependent growth inhibition, HL-60. The class given is cell-based. The conditions noted are these: 48-h exposure, optical density, data provided by NCI.
Another experiment relates to K-562 leukemia cell line. Put plainly: NCI dose-dependent growth inhibition, K-562. It is filed as cell-based. The settings on record: 48-h exposure, optical density, data provided by NCI.
Experiment [3] deals with RPMI-8226 leukemia cell line. Kind of experiment: NCI dose-dependent growth inhibition, RPMI-8226. The class given is cell-based. The settings on record: 48-h exposure, optical density, data provided by NCI.

As usually defined, the GI50 is the concentration giving 50% growth inhibition. A low value points to greater sensitivity of the cells. Take syringolin B methyl ester [Compound 1]: in experiment [1], the “Trypsin-Like Activity kin/Ki” value was 326 M⁻¹ s⁻¹. In addition, the 50% growth inhibitory concentration (GI50) with SR leukemia cell line was 5.13 µM; in experiment [2], 4.73 µM; in the experiment on HL-60 leukemia cell line it was 5.41 µM; with K-562 leukemia cell line it was 6.12 µM; in experiment [3], 3.97 µM.

The values above are taken from article PMC4562813 (Bioorganic & medicinal chemistry, 2015).
